± gives the expanded uncertainty stated by the source.
Assays:
[1] = xn = mol fraction of the nth substance listed; details: 101 kPa, Liquid
[2] = 101 kPa, Liquid

CCn1cc[n+](C)c1.O=S(=O)([N-]S(=O)(=O)C(F)(F)F)C(F)(F)F + C[S+](C)[O-]
mass density [kg/m3], [1]
Details	x1 = 0.0593	x1 = 0.1959	x1 = 0.3595	x1 = 0.5086	x1 = 0.6325	x1 = 0.7778	x1 = 0.9378	x1 = 1
293.15 K	1173.7 ± 0.4	1289.73 ± 0.6	1375.56 ± 0.73	1427.76 ± 0.81	1459.88 ± 0.85	1489.12 ± 0.89	1513.61 ± 0.93	1522.08 ± 0.95
298.15 K	1168.67 ± 0.4	1284.68 ± 0.59	1370.44 ± 0.73	1422.61 ± 0.81	1454.75 ± 0.85	1484.04 ± 0.89	1508.51 ± 0.93	1516.96 ± 0.94
303.13 K	1163.66 ± 0.39	1279.59 ± 0.58	1365.31 ± 0.72	1417.47 ± 0.8	1449.64 ± 0.84	1478.96 ± 0.88	1503.42 ± 0.92	1511.85 ± 0.93
308.15 K	1158.66 ± 0.38	1274.53 ± 0.57	1360.26 ± 0.71	1412.42 ± 0.79	1444.59 ± 0.83	1473.89 ± 0.87	1498.38 ± 0.91	1506.8 ± 0.92
313.15 K	1153.63 ± 0.4	1269.48 ± 0.6	1355.2 ± 0.71	1407.36 ± 0.78	1439.52 ± 0.82	1468.84 ± 0.87	1493.29 ± 0.9	1501.74 ± 0.91

CC#N [acetonitrile]
[2]
Details	mass density [kg/m3]
293.15 K	781.89 ± 0.59
298.15 K	776.52 ± 0.59
303.13 K	771.12 ± 0.6
308.15 K	765.68 ± 0.61
313.15 K	760.2 ± 0.62

C[S+](C)[O-] [dimethyl sulfoxide] + CCCC[n+]1ccn(C)c1.O=S(=O)([N-]S(=O)(=O)C(F)(F)F)C(F)(F)F
[1], x2 = 0
Details	mass density [kg/m3]
293.15 K	1100.31 ± 0.29
298.15 K	1095.3 ± 0.28
303.13 K	1090.31 ± 0.27
308.15 K	1085.27 ± 0.26
313.15 K	1080.27 ± 0.26

CCCC[n+]1ccn(C)c1.O=S(=O)([N-]S(=O)(=O)C(F)(F)F)C(F)(F)F + C1CCOC1
mass density [kg/m3], [1]
Details	x1 = 0.0488	x1 = 0.1139	x1 = 0.1771	x1 = 0.2815	x1 = 0.4048	x1 = 0.4897	x1 = 0.6329	x1 = 0.7468	x1 = 0.9071	x1 = 1
293.15 K	978.17 ± 0.34	1069.71 ± 0.44	1136.61 ± 0.54	1218.29 ± 0.66	1286.31 ± 0.73	1321.41 ± 0.75	1367.37 ± 0.77	1395.56 ± 0.79	1426.74 ± 0.81	1441.63 ± 0.82
298.15 K	973.69 ± 0.35	1065.22 ± 0.43	1132.17 ± 0.53	1213.74 ± 0.65	1281.83 ± 0.73	1317.1 ± 0.75	1362.88 ± 0.77	1391.06 ± 0.78	1421.92 ± 0.8	1436.83 ± 0.81
303.13 K	970.01 ± 0.35	1060.65 ± 0.42	1128.01 ± 0.53	1209.23 ± 0.64	1277.24 ± 0.72	1312.14 ± 0.74	1358.73 ± 0.76	1386.29 ± 0.77	1417.19 ± 0.79	1431.98 ± 0.81
308.15 K	964.12 ± 0.38	1055.92 ± 0.43	1122.34 ± 0.53	1204.63 ± 0.64	1272.69 ± 0.71	1307.42 ± 0.73	1353.21 ± 0.75	1381.45 ± 0.77	1412.45 ± 0.78	1427.16 ± 0.8

CCCC[n+]1ccn(C)c1.O=S(=O)([N-]S(=O)(=O)C(F)(F)F)C(F)(F)F
[2]
Details	mass density [kg/m3]
293.15 K	1441.63 ± 0.82
298.15 K	1436.83 ± 0.81
303.13 K	1431.98 ± 0.81
308.15 K	1427.16 ± 0.8
313.15 K	1422.36 ± 0.79

CCCC[n+]1ccn(C)c1.O=S(=O)([N-]S(=O)(=O)C(F)(F)F)C(F)(F)F + C[S+](C)[O-]
mass density [kg/m3], [1]
Details	293.15 K	298.15 K	303.13 K	308.15 K	313.15 K
x1 = 0.1025	1202.34 ± 0.45	1197.39 ± 0.45	1192.43 ± 0.44	1187.49 ± 0.43	1182.55 ± 0.45
x1 = 0.196	1263.15 ± 0.55	1258.21 ± 0.55	1253.26 ± 0.54	1248.31 ± 0.53	1243.37 ± 0.53
x1 = 0.2358	1283.38 ± 0.58	1278.4 ± 0.57	1273.45 ± 0.57	1268.49 ± 0.56	1263.51 ± 0.55
x1 = 0.3241	1319.45 ± 0.64	1314.52 ± 0.63	1309.58 ± 0.62	1304.64 ± 0.62	1299.72 ± 0.61
x1 = 0.4205	1349.72 ± 0.69	1344.81 ± 0.68	1339.88 ± 0.67	1334.99 ± 0.66	1330.05 ± 0.66
x1 = 0.4785	1364.67 ± 0.71	1359.72 ± 0.7	1354.8 ± 0.69	1349.87 ± 0.69	1344.87 ± 0.68
x1 = 0.5179	1373.61 ± 0.72	1368.67 ± 0.71	1363.77 ± 0.71	1358.86 ± 0.7	1353.93 ± 0.69
x1 = 0.5911	1388.28 ± 0.74	1383.33 ± 0.73	1378.5 ± 0.73	1373.59 ± 0.72	1368.72 ± 0.71
x1 = 0.6581	1400.07 ± 0.76	1395.16 ± 0.75	1390.25 ± 0.74	1385.42 ± 0.73	1380.54 ± 0.73
x1 = 0.8232	1423.06 ± 0.79	1418.22 ± 0.78	1413.34 ± 0.78	1408.48 ± 0.77	1403.6 ± 0.76
x1 = 1	1441.63 ± 0.82	1436.83 ± 0.81	1431.98 ± 0.81	1427.16 ± 0.8	1422.36 ± 0.79

C1CCOC1 [tetrahydrofuran] + CCCC[n+]1ccn(C)c1.O=S(=O)([N-]S(=O)(=O)C(F)(F)F)C(F)(F)F
[1], x2 = 0
Details	mass density [kg/m3]
293.15 K	887.41 ± 0.46
298.15 K	881.98 ± 0.46
303.13 K	876.47 ± 0.47
308.15 K	870.96 ± 0.48

Reference: the NIST ThermoML archive (doi:10.1021/je100315g)
